Patent US20240353338A1 (priority 2023, published 2024)

Test system: early Delta variant of SARS-CoV-2
Format: cell-based

## Nc1nnc(Sc2ncc([N+](=O)[O-])s2)s1 [Halicin]
  antiviral effectiveness (virus growth by reverse transcriptase quantitative PCR): inhibition of virus growth
